From ChEMBL document CHEMBL5360596, “Triquinane Sesquiterpene Glycosides from the Basidiomycete Antrodiella zonata” (J Nat Prod, 2023)
pIC50: −log10 of the molar value. Converted amounts (≈) assume the structure as drawn.

Columns and labels:
Staphylococcus aureus = experiment: Antibacterial activity against Staphylococcus aureus ATCC 29213 assessed as bacterial growth inhibition incubated for 24 hrs by photometric analysis; format: functional
[1] = Immunosuppressive activity against B cell (unknown origin) assessed as inhibition of LPS-induced cell proliferation; format: functional, cell-based

MIC50 (Staphylococcus aureus) [µM]	Compound	pIC50 [1]
69 (≈ 25.3 µg/mL)	CC1=C2[C@@H]3CC(C)(C)C[C@@H]3[C@H](O[C@@H]3OC[C@@H](O)[C@H](O)[C@H]3O)[C@@]2(C)CC1=O	
	CCCCCC[C@@H](O)C(=O)O[C@@H]1[C@@H]2[C@H](CC1(C)C)[C@H](O)[C@@]1([C@H](O)C(=O)OC)OCC(=O)[C@@]21C	5.18
34 (≈ 13 µg/mL)	CC1(C)C[C@H]2[C@@H](C1)C1=CC(=O)C[C@]1(C)[C@H]2O[C@@H]1O[C@H](CO)[C@@H](O)[C@H](O)[C@H]1O	
35 (≈ 13.9 µg/mL)	CC1=C2[C@@H]3CC(C)(C)C[C@@H]3[C@H](O[C@@H]3O[C@H](CO)[C@@H](O)[C@H](O)[C@H]3O)[C@@]2(C)CC1=O	
